Laboratory results taken from ChEMBL document CHEMBL4420076, “Amylin and calcitonin receptor agonist” (2017).
Converted amounts (≈) assume the structure as drawn. Square brackets hold non-standard residues; d marks the D form. Peptide text beside a SMILES is read from it. * marks the point of attachment. ξ: configuration not given here. C18 diacid = O=C(O)CCCCCCCCCCCCCCCCC(=O)*; Ile(3ξ) = CCC(C)[C@H](N)C(=O)O

Key:
[1] = Solubility in 100 mM bistrispropane buffer at pH 6.0 incubated for 18 hrs by UPLC analysis; type: physicochemical
[2] = Solubility in 100 mM glycylglycine buffer at pH 5.0 incubated for 18 hrs by UPLC analysis; type: physicochemical
[3] = Solubility in 100 mM bistrispropane buffer at pH 6.5 incubated for 18 hrs by UPLC analysis; type: physicochemical
[4] = Solubility in 100 mM glycylglycine buffer at pH 3.0 incubated for 18 hrs by UPLC analysis; type: physicochemical
[5] = Solubility in 100 mM bistrispropane buffer at pH 7.0 incubated for 18 hrs by UPLC analysis; type: physicochemical
[6] = Solubility in 100 mM bistrispropane buffer at pH 7.5 incubated for 18 hrs by UPLC analysis; type: physicochemical
[7] = Solubility in 100 mM bistrispropane buffer at pH 8.0 incubated for 18 hrs by UPLC analysis; type: physicochemical
[8] = molecular target: T1, Amylin receptor AMY3; CALCR/RAMP3 (Homo sapiens, UniProt O60896+P30988); test: Agonist activity at human amylin receptor expressed in BHK570 cells co-expressing RAMP3 assessed as increase in intracellular cAMP concentration incubated for 3 hrs in absence of albumin by CRE luciferase reporter gene assay; type: functional, cell-based
T1 sequence (P30988 whole entry): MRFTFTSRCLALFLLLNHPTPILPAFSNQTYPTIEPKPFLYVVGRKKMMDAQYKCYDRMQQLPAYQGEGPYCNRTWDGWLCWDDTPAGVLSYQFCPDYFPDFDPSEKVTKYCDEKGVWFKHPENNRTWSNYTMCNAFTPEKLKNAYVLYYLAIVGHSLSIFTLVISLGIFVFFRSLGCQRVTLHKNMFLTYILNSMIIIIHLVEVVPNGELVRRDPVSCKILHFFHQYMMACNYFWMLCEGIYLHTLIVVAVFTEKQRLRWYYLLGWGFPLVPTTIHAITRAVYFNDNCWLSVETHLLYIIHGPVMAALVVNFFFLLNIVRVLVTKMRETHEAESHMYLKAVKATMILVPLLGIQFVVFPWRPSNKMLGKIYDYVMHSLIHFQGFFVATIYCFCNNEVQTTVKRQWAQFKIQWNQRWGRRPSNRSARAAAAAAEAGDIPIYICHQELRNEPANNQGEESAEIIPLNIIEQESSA
T1 sequence (O60896 whole entry): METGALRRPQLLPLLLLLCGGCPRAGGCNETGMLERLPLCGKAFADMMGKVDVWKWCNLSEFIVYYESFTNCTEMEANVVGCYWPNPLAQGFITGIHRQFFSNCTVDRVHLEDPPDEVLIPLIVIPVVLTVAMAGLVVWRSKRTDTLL

Calcitonin receptor = molecular target: T2, Calcitonin receptor (Homo sapiens, UniProt P30988); test: Agonist activity at human calcitonin receptor expressed in BHK570 cells assessed as increase in intracellular cAMP concentration incubated for 3 hrs in absence of albumin by CRE luciferase reporter gene assay; type: functional, cell-based
T2 sequence (P30988 whole entry): T1 sequence (P30988 whole entry)

[9] = Solubility in 100 mM glycylglycine buffer at pH 4.0 incubated for 18 hrs by UPLC analysis; type: physicochemical

solubility at 18 h [1]	solubility at 18 h [2]	solubility at 18 h [3]	solubility at 18 h [4]	solubility at 18 h [5]	solubility at 18 h [6]	solubility at 18 h [7]	EC50 [8]	EC50 (Calcitonin receptor)	solubility at 18 h [9]	SMILES
≥ 200 µM	≥ 200 µM	≥ 200 µM	≥ 200 µM	≥ 200 µM	≥ 200 µM	≥ 200 µM	–	–	–	CC[C@@H](C)[C@H](NC(=O)[C@H](C)NC(=O)[C@@H](NC(=O)[C@H](CO)NC(=O)[C@@H](NC(=O)[C@H](CCC(=O)O)NC(=O)[C@H](CO)NC(=O)[C@H](C)NC(=O)[C@H](CCC(=O)O)NC(=O)CCCCCCCCCCCCCCCCC(=O)O)[C@H](C)CC)[C@@H](C)O)C(=O)N[C@@H](CC(C)C)C(=O)NCC(=O)N[C@@H](CCCNC(=N)N)C(=O)N[C@@H](CC(C)C)C(=O)N[C@@H](CO)C(=O)N[C@@H](C)C(=O)N[C@@H](CCC(=O)O)C(=O)N[C@@H](CC(C)C)C(=O)N[C@@H](Cc1cnc[nH]1)C(=O)N[C@@H](CCC(=O)O)C(=O)N[C@@H](CC(C)C)C(=O)N[C@@H](C)C(=O)N[C@H](C(=O)N[C@@H](CC(C)C)C(=O)N1CCC[C@H]1C(=O)N[C@@H](CCCNC(=N)N)C(=O)N[C@H](C(=O)N[C@@H](CCC(=O)O)C(=O)N[C@H](C(=O)NCC(=O)N1CCC[C@H]1C(=O)N[C@@H](CCC(=O)O)C(=O)N[C@@H](CO)C(=O)N1CCC[C@H]1C(N)=O)[C@@H](C)O)[C@@H](C)O)[C@@H](C)O
≥ 200 µM	7 µM (≈ 27.6 µg/mL)	≥ 200 µM	≥ 200 µM	≥ 200 µM	≥ 200 µM	≥ 200 µM	–	–	–	CC(C)C[C@H](NC(=O)[C@H](CCCNC(=N)N)NC(=O)CNC(=O)[C@H](CC(C)C)NC(=O)[C@@H](NC(=O)[C@H](C)NC(=O)[C@@H](NC(=O)[C@H](CO)NC(=O)[C@H](CC(C)C)NC(=O)[C@H](CCC(=O)O)NC(=O)[C@H](CO)NC(=O)[C@H](C)NC(=O)CC[C@H](NC(=O)CCCCCCCCCCCCCCCCCCC(=O)O)C(=O)O)[C@@H](C)O)C(C)C)C(=O)N[C@@H](CO)C(=O)N[C@@H](CCC(N)=O)C(=O)N[C@@H](CCC(=O)O)C(=O)N[C@@H](CC(C)C)C(=O)N[C@@H](Cc1cnc[nH]1)C(=O)N[C@@H](CCC(=O)O)C(=O)N[C@@H](CC(C)C)C(=O)N[C@@H](CCC(N)=O)C(=O)N[C@H](C(=O)N[C@@H](Cc1ccc(O)cc1)C(=O)N1CCC[C@H]1C(=O)N[C@@H](CCCNC(=N)N)C(=O)N[C@H](C(=O)N[C@@H](CCC(=O)O)C(=O)N[C@H](C(=O)NCC(=O)N[C@@H](CO)C(=O)NCC(=O)N[C@H](C(=O)N[C@@H](Cc1ccc(O)cc1)C(N)=O)[C@@H](C)O)[C@@H](C)O)[C@@H](C)O)[C@H](C)O
≥ 200 µM	≥ 200 µM	≥ 200 µM	≥ 200 µM	≥ 200 µM	≥ 200 µM	≥ 200 µM	0.01 nM	0.005 nM	–	CC[C@H](C)[C@H](NC(=O)[C@H](C)NC(=O)[C@@H](NC(=O)[C@H](CO)NC(=O)[C@@H](NC(=O)[C@H](CCC(=O)O)NC(=O)[C@H](CO)NC(=O)[C@H](C)NC(=O)[C@H](CCC(=O)O)NC(=O)CCCCCCCCCCCCCCCCC(=O)O)[C@@H](C)CC)[C@@H](C)O)C(=O)N[C@H](C(=O)NCC(=O)N[C@@H](CCCNC(=N)N)C(=O)N[C@@H](CC(C)C)C(=O)N[C@@H](CO)C(=O)N[C@@H](C)C(=O)N[C@@H](CCC(=O)O)C(=O)N[C@@H](CC(C)C)C(=O)N[C@@H](Cc1cnc[nH]1)C(=O)N[C@@H](CCC(=O)O)C(=O)N[C@@H](CC(C)C)C(=O)N[C@@H](C)C(=O)N[C@H](C(=O)N[C@@H](CC(C)C)C(=O)N1CCC[C@H]1C(=O)N[C@@H](CCCNC(=N)N)C(=O)N[C@H](C(=O)N[C@@H](CCC(=O)O)C(=O)N[C@H](C(=O)NCC(=O)N1CCC[C@H]1C(=O)N[C@@H](CCC(=O)O)C(=O)N[C@@H](CO)C(=O)N1CCC[C@H]1C(N)=O)[C@@H](C)O)[C@@H](C)O)[C@@H](C)O)[C@@H](C)CC ({C18 diacid}-EASEISTAIIGRLSAELHELATLPRTETGPESP-NH2)
–	–	–	–	–	–	–	0.011 nM	0.007 nM	–	CC(C)C[C@H](NC(=O)[C@H](C)NC(=O)[C@H](C)NC(=O)[C@@H](NC(=O)[C@H](CO)NC(=O)[C@H](CC(C)C)NC(=O)[C@H](CCC(=O)O)NC(=O)[C@H](CO)NC(=O)[C@H](C)NC(=O)[C@H](CCC(=O)O)NC(=O)CCCCCCCCCCCCCCCCC(=O)O)[C@@H](C)O)C(=O)NCC(=O)N[C@@H](CCCNC(=N)N)C(=O)N[C@@H](CC(C)C)C(=O)N[C@@H](CO)C(=O)N[C@@H](C)C(=O)N[C@@H](CCC(=O)O)C(=O)N[C@@H](CC(C)C)C(=O)N[C@@H](Cc1cnc[nH]1)C(=O)N[C@@H](CCC(=O)O)C(=O)N[C@@H](CC(C)C)C(=O)N[C@@H](C)C(=O)N[C@H](C(=O)N[C@@H](Cc1ccc(O)cc1)C(=O)N1CCC[C@H]1C(=O)N[C@@H](CCCNC(=N)N)C(=O)N[C@H](C(=O)N[C@@H](CCC(=O)O)C(=O)N[C@H](C(=O)NCC(=O)N1CCC[C@H]1C(=O)N[C@@H](CCC(=O)O)C(=O)N[C@@H](CO)C(=O)N1CCC[C@H]1C(N)=O)[C@@H](C)O)[C@@H](C)O)[C@@H](C)O ({C18 diacid}-EASELSTAALGRLSAELHELATYPRTETGPESP-NH2)
≥ 200 µM	≥ 200 µM	≥ 200 µM	≥ 200 µM	≥ 200 µM	≥ 200 µM	≥ 200 µM	–	–	≥ 200 µM	CCC(C)[C@H](NC(=O)[C@@H](NC(=O)[C@H](C)NC(=O)[C@@H](NC(=O)[C@H](CO)NC(=O)[C@H](CC(C)C)NC(=O)[C@H](CCC(=O)O)NC(=O)[C@H](CO)NC(=O)[C@H](C)NC(=O)[C@H](CCC(=O)O)NC(=O)CCCCCCCCCCCCCCCCC(=O)O)[C@@H](C)O)C(C)C)C(=O)NCC(=O)N[C@@H](CCCNC(=N)N)C(=O)N[C@@H](CC(C)C)C(=O)N[C@@H](CO)C(=O)N[C@@H](C)C(=O)N[C@@H](CCC(=O)O)C(=O)N[C@@H](CC(C)C)C(=O)N[C@@H](Cc1cnc[nH]1)C(=O)N[C@@H](CCC(=O)O)C(=O)N[C@@H](CC(C)C)C(=O)N[C@@H](C)C(=O)N[C@H](C(=O)N[C@@H](CC(C)C)C(=O)N1CCC[C@H]1C(=O)N[C@@H](CCCNC(=N)N)C(=O)N[C@H](C(=O)N[C@@H](CCC(=O)O)C(=O)N[C@H](C(=O)NCC(=O)N1CCC[C@H]1C(=O)N[C@@H](CCC(=O)O)C(=O)N[C@@H](CO)C(=O)N1CCC[C@H]1C(N)=O)[C@@H](C)O)[C@@H](C)O)[C@@H](C)O (stereo not given in full) ({C18 diacid}-EASELSTAV[Ile(3ξ)]GRLSAELHELATLPRTETGPESP-NH2)
≥ 200 µM	–	≥ 200 µM	–	≥ 200 µM	≥ 200 µM	≥ 200 µM	0.023 nM	0.054 nM	–	CC(C)C[C@H](NC(=O)[C@H](CCCNC(=N)N)NC(=O)CNC(=O)[C@H](CC(C)C)NC(=O)[C@@H](NC(=O)[C@H](C)NC(=O)[C@@H](NC(=O)[C@H](CO)NC(=O)[C@@H](NC(=O)[C@H](CCC(=O)O)NC(=O)[C@H](CO)NC(=O)[C@H](C)NC(=O)[C@H](CCC(=O)O)NC(=O)CCCCCCCCCCCCCCCCC(=O)O)C(C)C)[C@@H](C)O)C(C)C)C(=O)N[C@@H](CO)C(=O)N[C@@H](C)C(=O)N[C@@H](CCC(=O)O)C(=O)N[C@@H](CC(C)C)C(=O)N[C@@H](Cc1cnc[nH]1)C(=O)N[C@@H](CCC(=O)O)C(=O)N[C@H](C(=O)N[C@@H](C)C(=O)N[C@H](C(=O)N[C@@H](CC(C)C)C(=O)N1CCC[C@H]1C(=O)N[C@@H](CCCNC(=N)N)C(=O)N[C@H](C(=O)N[C@@H](CCC(=O)O)C(=O)N[C@H](C(=O)NCC(=O)N1CCC[C@H]1C(=O)N[C@@H](CCC(=O)O)C(=O)N[C@@H](CO)C(=O)N1CCC[C@H]1C(N)=O)[C@@H](C)O)[C@@H](C)O)[C@@H](C)O)C(C)C ({C18 diacid}-EASEVSTAVLGRLSAELHEVATLPRTETGPESP-NH2)
